According to ChEMBL document CHEMBL5465560, “Selectivity Literature for EUbOPEN Chemogenomic Library” (2024):

Assays:
[1] = biological target: T1, Serine/threonine-protein kinase LATS1 (Homo sapiens) (UniProt O95835); test: Selectivity interaction (KinomeScan (DiscoverX)) EUB0001079a LATS1; details: at 1 µM
T1 sequence (whole entry): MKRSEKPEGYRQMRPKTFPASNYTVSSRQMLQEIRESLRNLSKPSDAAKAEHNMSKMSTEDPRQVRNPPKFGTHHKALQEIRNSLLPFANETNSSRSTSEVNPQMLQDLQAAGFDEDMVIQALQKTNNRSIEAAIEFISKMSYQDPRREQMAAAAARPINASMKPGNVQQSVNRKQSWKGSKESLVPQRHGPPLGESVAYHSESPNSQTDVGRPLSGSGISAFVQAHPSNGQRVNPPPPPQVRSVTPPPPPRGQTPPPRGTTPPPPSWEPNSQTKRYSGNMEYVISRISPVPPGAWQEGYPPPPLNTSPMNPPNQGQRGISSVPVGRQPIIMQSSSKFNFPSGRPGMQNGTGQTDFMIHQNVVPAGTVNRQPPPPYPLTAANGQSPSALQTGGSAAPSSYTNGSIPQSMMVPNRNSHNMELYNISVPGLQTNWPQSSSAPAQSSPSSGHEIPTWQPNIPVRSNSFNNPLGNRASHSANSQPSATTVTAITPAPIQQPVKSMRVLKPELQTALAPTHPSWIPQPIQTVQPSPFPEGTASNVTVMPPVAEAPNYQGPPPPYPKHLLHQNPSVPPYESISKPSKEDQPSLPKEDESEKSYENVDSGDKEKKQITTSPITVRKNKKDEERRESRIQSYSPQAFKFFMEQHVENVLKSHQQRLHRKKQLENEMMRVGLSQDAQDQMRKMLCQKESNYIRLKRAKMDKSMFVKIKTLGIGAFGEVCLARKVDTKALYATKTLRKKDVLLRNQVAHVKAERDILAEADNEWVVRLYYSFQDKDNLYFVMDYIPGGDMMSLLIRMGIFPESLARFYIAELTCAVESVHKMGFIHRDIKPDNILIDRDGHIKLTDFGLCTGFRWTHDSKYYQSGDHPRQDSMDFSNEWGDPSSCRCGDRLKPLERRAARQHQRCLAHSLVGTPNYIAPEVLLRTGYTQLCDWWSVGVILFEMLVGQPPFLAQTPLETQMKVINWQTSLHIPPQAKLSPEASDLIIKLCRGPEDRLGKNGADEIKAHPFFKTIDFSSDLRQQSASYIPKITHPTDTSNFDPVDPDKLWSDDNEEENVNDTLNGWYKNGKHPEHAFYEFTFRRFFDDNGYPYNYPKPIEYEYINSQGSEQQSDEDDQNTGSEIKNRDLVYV

[2] = biological target: T2, Serine/threonine-protein kinase TAO1 (Homo sapiens) (UniProt Q7L7X3); test: Selectivity interaction (KinomeScan (DiscoverX)) EUB0000618a TAOK1; details: at 10 µM
T2 sequence (whole entry): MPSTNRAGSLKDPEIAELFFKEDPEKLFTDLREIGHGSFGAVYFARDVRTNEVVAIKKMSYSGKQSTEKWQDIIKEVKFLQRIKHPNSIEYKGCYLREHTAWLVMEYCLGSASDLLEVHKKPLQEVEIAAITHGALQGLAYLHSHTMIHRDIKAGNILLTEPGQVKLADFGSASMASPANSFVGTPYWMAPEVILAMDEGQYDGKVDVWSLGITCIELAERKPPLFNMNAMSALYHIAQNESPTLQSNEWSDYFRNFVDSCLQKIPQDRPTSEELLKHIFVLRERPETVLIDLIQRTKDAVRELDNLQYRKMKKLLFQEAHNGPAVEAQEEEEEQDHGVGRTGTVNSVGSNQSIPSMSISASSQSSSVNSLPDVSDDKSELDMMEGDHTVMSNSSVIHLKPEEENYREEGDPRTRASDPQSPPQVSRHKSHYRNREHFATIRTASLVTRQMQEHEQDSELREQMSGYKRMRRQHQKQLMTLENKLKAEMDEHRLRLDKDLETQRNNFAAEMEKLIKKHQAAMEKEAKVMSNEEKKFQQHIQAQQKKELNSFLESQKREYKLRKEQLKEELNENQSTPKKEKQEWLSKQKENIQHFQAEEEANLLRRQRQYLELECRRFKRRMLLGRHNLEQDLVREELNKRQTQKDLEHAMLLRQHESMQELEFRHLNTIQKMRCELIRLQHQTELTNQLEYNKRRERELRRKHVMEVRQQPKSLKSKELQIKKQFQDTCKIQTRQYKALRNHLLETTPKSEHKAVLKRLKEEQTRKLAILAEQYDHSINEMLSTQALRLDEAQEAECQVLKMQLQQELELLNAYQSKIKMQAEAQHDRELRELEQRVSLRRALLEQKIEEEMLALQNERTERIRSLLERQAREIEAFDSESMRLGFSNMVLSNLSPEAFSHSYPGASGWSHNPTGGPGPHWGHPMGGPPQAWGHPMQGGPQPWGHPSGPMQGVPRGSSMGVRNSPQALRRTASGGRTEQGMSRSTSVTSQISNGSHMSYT

Row | Compound | % of control [1] [%] | % of control [2] [%]
1 | Nc1cnc(N2CCc3cc(S(=O)(=O)Nc4c(F)cc(Cl)cc4F)cc(N4CCCC4=O)c32)nc1 [TP-020n] | 100 | 
2 | O[C@H]1CC[C@H](Nc2ncc3nc(Nc4c(F)cc(F)cc4F)n([C@H]4CCOC4)c3n2)CC1 |  | 81
